The nature of the series: Acid-base titration of the polymers (pKa). It counts as physicochemical. As for the experimental part: Meo-PEG-b-P(DPA-co-GMA-TEPA-C14) was dispersed in deionized water, and a concentrated HCl aqueous solution was added until complete dissolution of the copolymer (1 mg/mL). Subsequently, 1 M NaOH aqueous solution was added in 1-5 μL increments. After each addition, the solution was constantly stirred for 3 min, and the solution pH was measured using a pH meter.
Meo-PEG-b-P(DPA-co-GMA-Rn) was dispersed in deionized water, and a concentrated HCl aqueous solution was added until the copolymer was completely dissolved (1 mg/mL). Subsequently, 1 M NaOH aqueous solution was added in 1-5 μL increments. After each addition, the solution was constantly stirred for 3 min, and the solution pH was measured using a pH meter.
Subsequently, 1 M NaOH aqueous solution was added in 1-5 μL increments. After each addition, the solution was constantly stirred for 3 min, and the solution pH was measured using a pH meter.
Regarding Meo-PEG-b-P(DPA-co-GMA) [PDPA70-GMA5], the pKa worked out at 6.26.

Meo-PEG-b-P(DPA-co-GMA) [PDPA60-GMA5] gave a pKa of 6.29.

For Meo-PEG-b-P(DPA-co-GMA) [PDPA100-GMA5], the pKa was 6.21.

Turning to “Meo-PEG-b-P(DPA-co-GMA-TEPA-C14) [PDPA50]”, the pKa of polymer worked out at 6.31.

On to “Meo-PEG-b-P(DPA-co-GMA-TEPA-C14) [PDPA70]”, for which the pKa of polymer is recorded as 6.26.

Substance “Meo-PEG-b-P(DPA-co-GMA-TEPA-C14) [PDPA60]” had a pKa of polymer of 6.29.

As for Meo-PEG-b-P(DPA-co-GMA-R10), the pKa is listed as 6.31.

For Meo-PEG-b-P(DPA-co-GMA) [PDPA50-GMA5], the pKa is reported as 6.31.

The substance “Meo-PEG-b-P(DPA-co-GMA-TEPA-C14) [PDPA40]” displayed a pKa of polymer of 6.34.

Meo-PEG-b-P(DPA-co-GMA) [PDPA40-GMA5]: the pKa amounted to 6.34.

The substance “Meo-PEG113-b-P(DPA80-co-GMA5) [PDPA80-GMA5]” yielded a pKa of 6.24.

The pKa is the negative logarithm of the acid dissociation constant. Low readings indicate a stronger acid or weaker base, high ones a weaker acid or stronger base.

The values are drawn from patent publication US12653911B2, “Stimuli-responsive nanoparticles for biomedical applications” (The Brigham and Women's Hospital, Inc., priority 2016, dated 2026).
